*1 amine or outer side, *2 acyl side, *3 side chain or, on linkers, in order; H or OH if unused. Where a SMILES comes first, the peptide text is derived from it. Side-chain parts run from the residue outwards. [ ]: non-standard residue; d: D form. The star is where a group is joined. γGlu = O=C(O)[C@H](CCC(=O)[*:2])N[*:1]; Stearoyl = CCCCCCCCCCCCCCCCCC(=O)*; Palmitoyl = CCCCCCCCCCCCCCCC(=O)*; PEG4 = NCCOCCOCCOCCOCCC(=O)O; Lauroyl = CCCCCCCCCCCC(=O)*; Nle = CCCC[C@H](N)C(=O)O; AEEA = NCCOCCOCC(=O)O; Aib = CC(C)(N)C(=O)O
Target: T1, RXFP1 (Homo sapiens, UniProt Q9HBX9)
T1 construct: OVCAR5 cells expressing endogenous RXFP1; endogenous in cells; host or cells: OVCAR5 cells
T1 sequence (Q9HBX9 1-757): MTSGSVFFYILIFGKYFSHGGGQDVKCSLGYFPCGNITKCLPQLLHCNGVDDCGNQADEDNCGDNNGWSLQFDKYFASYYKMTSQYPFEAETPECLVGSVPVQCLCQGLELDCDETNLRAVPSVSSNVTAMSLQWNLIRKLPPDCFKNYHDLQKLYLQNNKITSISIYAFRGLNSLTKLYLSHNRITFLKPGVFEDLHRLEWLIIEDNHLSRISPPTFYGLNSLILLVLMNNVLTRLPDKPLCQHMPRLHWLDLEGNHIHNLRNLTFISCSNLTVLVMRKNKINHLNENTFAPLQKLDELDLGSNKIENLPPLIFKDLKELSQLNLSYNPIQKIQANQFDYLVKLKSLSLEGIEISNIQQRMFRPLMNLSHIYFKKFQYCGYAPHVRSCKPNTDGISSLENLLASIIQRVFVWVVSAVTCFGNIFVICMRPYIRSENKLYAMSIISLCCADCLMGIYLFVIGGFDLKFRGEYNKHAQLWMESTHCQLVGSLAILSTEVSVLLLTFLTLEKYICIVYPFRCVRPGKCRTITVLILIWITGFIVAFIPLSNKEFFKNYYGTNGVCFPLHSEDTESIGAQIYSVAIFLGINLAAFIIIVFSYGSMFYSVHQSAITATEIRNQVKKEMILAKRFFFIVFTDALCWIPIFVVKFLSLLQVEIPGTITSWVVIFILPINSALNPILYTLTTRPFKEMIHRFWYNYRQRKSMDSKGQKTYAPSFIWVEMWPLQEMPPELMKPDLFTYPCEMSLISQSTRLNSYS
Assay: OVCAR5 cAMP assay (HTRF), RXFP1 agonist activity
Assay type: cell-based
Conditions: for EC50: OVCAR5 cells, cAMP HTRF, read-out: EC50 (nM), OVCAR 5 cells (cAMP); for Emax: OVCAR-5, maximal cAMP relative to H2-relaxin maximum (100%), read-out: EMax, OVCAR 5 cells (cAMP)
In short: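 cAMP accumulation readout: after 1 mM IBMX for 40 min, endogenous-RXFP1 OVCAR5 cells got rising peptide concentrations without FCS, 30 min, 37° C, then lysis with HTRF cAMP reagents. Nonlinear regression gave EC50; Emax expressed relative to H2-relaxin maximum, same occasion.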

Row | Structure (SMILES) | EC50 | Emax
1 | CCCCCCCCCCCCCCCC(=O)N[C@@H](CCC(=O)NCCCC[C@H](NC(=O)CC[C@H](NC(=O)CC[C@H](NC(=O)COCCOCCNC(=O)COCCOCCNC(=O)COCCOCCNC(=O)COCCOCCNC(=O)[C@H](CCCCNC(C)=O)NC(=O)[C@H](CCCCN)NC(=O)[C@H](CCCNC(=N)N)NC(=O)C(C)(C)NC(=O)[C@H](CO)NC(=O)[C@H](Cc1c[nH]c2ccccc12)NC(=O)[C@@H](NC(=O)[C@H](CO)NC(=O)[C@H](CCCC)NC(=O)CNC(=O)[C@H](CCC(=O)O)NC(=O)C(C)(C)NC(=O)C(C)(C)NC(=O)[C@@H](NC(=O)[C@H](CCCCNC(C)=O)NC(=O)[C@H](C)NC(=O)[C@H](CCCNC(=N)N)NC(=O)[C@@H](NC(=O)[C@H](CCCCN)NC(=O)[C@H](CCC(=O)O)NC(=O)[C@H](CCCNC(=N)N)NC(=O)CNC(=O)[C@H](CCC(=O)O)NC(=O)[C@H](CC(C)C)NC(C)=O)C(C)C)[C@@H](C)CC)[C@@H](C)O)C(=O)O)C(=O)O)C(N)=O)C(=O)O [compound 116] (Ac-LEGREKVRAK(Ac)I[Aib][Aib]EG[Nle]STWS[Aib]RKK(Ac)[AEEA][AEEA][AEEA][AEEA][γGlu][γGlu]K([γGlu-Palmitoyl])-NH2) | 1 nM | 89%
2 | CCCCCCCCCCCCCCCC(=O)N[C@@H](CCC(=O)NCCCC[C@H](NC(=O)CC[C@H](NC(=O)CC[C@H](NC(=O)COCCOCCNC(=O)COCCOCCNC(=O)COCCOCCNC(=O)[C@H](CCCCNC(C)=O)NC(=O)[C@H](CCCCN)NC(=O)[C@H](CCCNC(=N)N)NC(=O)C(C)(C)NC(=O)[C@H](CO)NC(=O)[C@H](Cc1c[nH]c2ccccc12)NC(=O)[C@@H](NC(=O)[C@H](CO)NC(=O)[C@H](CCCC)NC(=O)CNC(=O)[C@H](CCC(=O)O)NC(=O)C(C)(C)NC(=O)C(C)(C)NC(=O)[C@@H](NC(=O)[C@H](CCCCNC(C)=O)NC(=O)[C@H](C)NC(=O)[C@H](CCCNC(=N)N)NC(=O)[C@@H](NC(=O)[C@H](CCCCN)NC(=O)[C@H](CCC(=O)O)NC(=O)[C@H](CCCNC(=N)N)NC(=O)CNC(=O)[C@H](CCC(=O)O)NC(=O)[C@H](CC(C)C)NC(C)=O)C(C)C)[C@@H](C)CC)[C@@H](C)O)C(=O)O)C(=O)O)C(N)=O)C(=O)O [compound 117] (Ac-LEGREKVRAK(Ac)I[Aib][Aib]EG[Nle]STWS[Aib]RKK(Ac)[AEEA][AEEA][AEEA][γGlu][γGlu]K([γGlu-Palmitoyl])-NH2) | – | 86%
3 | CCCCCCCCCCCCCCCC(=O)N[C@@H](CCC(=O)NCCCC[C@H](NC(=O)CC[C@H](NC(=O)CC[C@H](NC(=O)COCCOCCNC(=O)COCCOCCNC(=O)[C@H](CCCCNC(C)=O)NC(=O)[C@H](CCCCN)NC(=O)[C@H](CCCNC(=N)N)NC(=O)C(C)(C)NC(=O)[C@H](CO)NC(=O)[C@H](Cc1c[nH]c2ccccc12)NC(=O)[C@@H](NC(=O)[C@H](CO)NC(=O)[C@H](CCCC)NC(=O)CNC(=O)[C@H](CCC(=O)O)NC(=O)C(C)(C)NC(=O)C(C)(C)NC(=O)[C@@H](NC(=O)[C@H](CCC(N)=O)NC(=O)[C@H](C)NC(=O)[C@H](CCCNC(=N)N)NC(=O)[C@@H](NC(=O)[C@H](CCCCN)NC(=O)[C@H](CCC(=O)O)NC(=O)[C@H](CCCNC(=N)N)NC(=O)CNC(=O)[C@H](CCC(=O)O)NC(=O)[C@H](CC(C)C)NC(C)=O)C(C)C)[C@@H](C)CC)[C@@H](C)O)C(=O)O)C(=O)O)C(N)=O)C(=O)O [compound 118] (Ac-LEGREKVRAQI[Aib][Aib]EG[Nle]STWS[Aib]RKK(Ac)[AEEA][AEEA][γGlu][γGlu]K([γGlu-Palmitoyl])-NH2) | – | 86%
4 | CCCCCCCCCCCCCCCC(=O)N[C@@H](CCC(=O)NCCCC[C@H](NC(=O)CC[C@H](NC(=O)CC[C@H](NC(=O)COCCOCCNC(=O)COCCOCCNC(=O)COCCOCCNC(=O)[C@H](CCCCNC(C)=O)NC(=O)[C@H](CCCCN)NC(=O)[C@H](CCCNC(=N)N)NC(=O)C(C)(C)NC(=O)[C@H](CO)NC(=O)[C@H](Cc1c[nH]c2ccccc12)NC(=O)[C@@H](NC(=O)[C@H](CO)NC(=O)[C@H](CCCC)NC(=O)CNC(=O)[C@H](CCC(=O)O)NC(=O)C(C)(C)NC(=O)C(C)(C)NC(=O)[C@@H](NC(=O)[C@H](CCC(N)=O)NC(=O)[C@H](C)NC(=O)[C@H](CCCNC(=N)N)NC(=O)[C@@H](NC(=O)[C@H](CCCCN)NC(=O)[C@H](CCC(=O)O)NC(=O)[C@H](CCCNC(=N)N)NC(=O)CNC(=O)[C@H](CCC(=O)O)NC(=O)[C@H](CC(C)C)NC(C)=O)C(C)C)[C@@H](C)CC)[C@@H](C)O)C(=O)O)C(=O)O)C(N)=O)C(=O)O [compound 119] (Ac-LEGREKVRAQI[Aib][Aib]EG[Nle]STWS[Aib]RKK(Ac)[AEEA][AEEA][AEEA][γGlu][γGlu]K([γGlu-Palmitoyl])-NH2) | 1.21 nM | 83%
5 | CCCCCCCCCCCC(=O)N[C@@H](CCC(=O)N[C@@H](CCC(=O)N[C@@H](CCC(=O)NCCOCCOCC(=O)NCCOCCOCC(=O)NCCOCCOCC(=O)NCCCC[C@H](NC(=O)[C@H](CCCCNC(C)=O)NC(=O)[C@H](CCCCN)NC(=O)[C@H](CCCNC(=N)N)NC(=O)C(C)(C)NC(=O)[C@H](CO)NC(=O)[C@H](Cc1c[nH]c2ccccc12)NC(=O)[C@@H](NC(=O)[C@H](CO)NC(=O)[C@H](CCCC)NC(=O)CNC(=O)[C@H](CCC(=O)O)NC(=O)C(C)(C)NC(=O)C(C)(C)NC(=O)[C@@H](NC(=O)[C@H](CCCCNC(C)=O)NC(=O)[C@H](C)NC(=O)[C@H](CCCNC(=N)N)NC(=O)[C@@H](NC(=O)[C@H](CCCCN)NC(=O)[C@H](CCC(=O)O)NC(=O)[C@H](CCCNC(=N)N)NC(=O)CNC(=O)[C@H](CCC(=O)O)NC(=O)[C@H](CC(C)C)NC(C)=O)C(C)C)[C@@H](C)CC)[C@@H](C)O)C(N)=O)C(=O)O)C(=O)O)C(=O)O [compound 120] (Ac-LEGREKVRAK(Ac)I[Aib][Aib]EG[Nle]STWS[Aib]RKK(Ac)K([AEEA-AEEA-AEEA-γGlu-γGlu-γGlu-Lauroyl])-NH2) | – | 92%
6 | CCCCCCCCCCCCCCCC(=O)N[C@@H](CCC(=O)NCCCC[C@H](NC(=O)CC[C@H](NC(=O)CC[C@H](NC(=O)COCCOCCNC(=O)COCCOCCNC(=O)COCCOCCNC(=O)COCCOCCNC(=O)[C@H](CCCCNC(C)=O)NC(=O)[C@H](CCCCN)NC(=O)[C@H](CCCNC(=N)N)NC(=O)C(C)(C)NC(=O)[C@H](CO)NC(=O)[C@H](Cc1c[nH]c2ccccc12)NC(=O)[C@@H](NC(=O)[C@H](CO)NC(=O)[C@H](CCCC)NC(=O)CNC(=O)[C@H](CCC(=O)O)NC(=O)C(C)(C)NC(=O)C(C)(C)NC(=O)[C@@H](NC(=O)[C@H](CCC(N)=O)NC(=O)[C@H](C)NC(=O)[C@H](CCCNC(=N)N)NC(=O)[C@@H](NC(=O)[C@H](CCCCN)NC(=O)[C@H](CCC(=O)O)NC(=O)[C@H](CCCNC(=N)N)NC(=O)CNC(=O)[C@H](CCC(=O)O)NC(=O)[C@H](CC(C)C)NC(C)=O)C(C)C)[C@@H](C)CC)[C@@H](C)O)C(=O)O)C(=O)O)C(N)=O)C(=O)O [compound 121] (Ac-LEGREKVRAQI[Aib][Aib]EG[Nle]STWS[Aib]RKK(Ac)[AEEA][AEEA][AEEA][AEEA][γGlu][γGlu]K([γGlu-Palmitoyl])-NH2) | – | 91%
7 | CCCCCCCCCCCCCCCCCC(=O)N[C@@H](CCC(=O)N[C@@H](CCC(=O)N[C@@H](CCC(=O)N[C@@H](CCC(=O)N[C@@H](CCC(=O)NCCCC[C@H](NC(=O)CCOCCOCCOCCOCCNC(=O)CCOCCOCCOCCOCCNC(=O)[C@H](CCCCN)NC(=O)[C@H](CCCCN)NC(=O)[C@H](CCCCN)NC(=O)[C@H](CCCNC(=N)N)NC(=O)C(C)(C)NC(=O)[C@H](CO)NC(=O)[C@H](Cc1c[nH]c2ccccc12)NC(=O)[C@@H](NC(=O)[C@H](CO)NC(=O)[C@H](CCCC)NC(=O)CNC(=O)[C@H](CCC(=O)O)NC(=O)C(C)(C)NC(=O)C(C)(C)NC(=O)[C@@H](NC(=O)[C@H](CCC(N)=O)NC(=O)[C@H](C)NC(=O)[C@H](CCCNC(=N)N)NC(=O)[C@@H](NC(=O)[C@H](CCCCN)NC(=O)[C@H](CCC(=O)O)NC(=O)[C@H](CCCNC(=N)N)NC(=O)CNC(=O)[C@H](CCC(=O)O)NC(=O)[C@H](CC(C)C)NC(C)=O)C(C)C)[C@@H](C)CC)[C@@H](C)O)C(N)=O)C(=O)O)C(=O)O)C(=O)O)C(=O)O)C(=O)O [compound 122] (Ac-LEGREKVRAQI[Aib][Aib]EG[Nle]STWS[Aib]RKKK[PEG4][PEG4]K([γGlu-γGlu-γGlu-γGlu-γGlu-Stearoyl])-NH2) | – | 93%
